The text below walks through data of patent US20110064833A1, “SYNERGISTIC HERBAL COMPOSITION AND PROCESS OF PREPARATION THEREOF” (priority 2007, published 2011).

This assay deals with streptozotocin diabetic rats. The assay is described as follows: In-vivo efficacy screening in streptozotocin diabetic Sprague Dawley rats, 35 days oral gavage. From the text:
The number of animals per dose group is five and is kept for examination and acclimatization for a week period at the start of the study. The total number of dose groups is six along with vehicle control. The different groups are G1-Vehicle control, G2-Diabetic control, G-3 Diabetic animals treated with Pioglitazone (Standard anti-diabetic drug). […] Blood is collection under CO2 anesthesia by retro orbital (ROP) plexus method and FBG analysis. Rats are fed with 5% glucose water for two days before STZ injection and are fasted for 12 hours before administering streptozotocin. The rats are injected intra-peritoneal with 45 mg/kg-body weight of streptozotocin in a citrate buffer ph: 4.5 and allowed for week recovery. Rats are fasted for 12 hours after 7th day of STZ injection and blood collected in heparin as the anti-coagulant, under CO2 anesthesia and analyzed for FBG. Rats that have the range of FBG beyond 250 mg/dl and above are considered for the study.
Selection, randomization and grouping of the animals into different treatment groups with the FBG range of 250 mg/dl is undertaken as above. […] The dosage volume administered to individual rat was adjusted according to its most recently recorded body weights. […] All signs of ill health, together with any behavioral changes or reaction to treatment are recorded for individual animals. […]

On to `COc1ccc(Cl)cc1C(=O)NCCc1ccc(S(=O)(=O)NC(=O)NC2CCCCC2)cc1` [glebenclamide], for which the “increase in fasting blood glucose from baseline at the end of 35 days” value (glebenclamide, dose not stated) was “about 110%”.

In the case of `CCc1ccc(CCOc2ccc(CC3SC(=O)NC3=O)cc2)nc1` (centres unmarked) [pioglitazone], for the setting “pioglitazone 20 mg/kg-body weight”, the “increase in fasting blood glucose from baseline at the end of 35 days” value is “about 98%”.
